Counter-ions that a name gives are not always drawn.
What was measured:
[1] = test system: Citrobacter freundii 1982; assay: MIC in vitro of a 1:4 combination of ceftriaxone with a compound of formula I (Test D); assay type: cell-based; details: for MIC C. freundii 1982 (D): test D; for MIC C. freundii 1982: Table 2
Experimental: The minimum inhibitory concentration in vitro ([…]) of a 1:4 combination of ceftriaxone with a compound of formula I against Citrobacter freundii 1982 was measured and compiled in Table 2 hereinafter.

[2] = test system: E. coli 1346; assay: Antibacterial activity of the products per se, serial dilution method in liquid medium (Test E); assay type: cell-based; details: product per se; for MIC E. coli 1346 (E): test E; for MIC E. coli 1346: Table 3, liquid medium
From the text: The antibacterial activity of the products per se is illustrated on the basis of Table 3 hereinafter, the minimum inhibitory concentration […] in vitro against E. coli 1346 being determined using the serial dilution method in liquid medium: […]

[3] = Table 4, 1:4 combination of ceftriaxone with the compound
[4] = 1:4 combination of ceftriaxone with the compound
[5] = Table 5, particularly preferred products, 1:4 combination with ceftriaxone
[6] = Table 5, particularly preferred products

SMILES	MIC C. freundii 1982 (D) [1, 3] [µg/mL]	MIC E. coli 1346 (E) ([2]; Table 4) [µg/mL]	further results
CC(=O)N1C[C@H]2CC(COC(=O)NCc3ccncc3)=C(C(=O)O)N3C(=O)[C@@H]1[C@@H]23 [100(a), (1aS,3aR,6bR)-2-Acetyl-1-oxo-5-(pyridin-4-ylmethylcarbamoyloxymethyl)-1a,2,3,3a,4,6b-hexahydro-1H-2,6a-diazacyclobut[cd]indene-6-carboxylic acid sodium salt]	1	1	–
Cn1nnnc1SCC1=C(C(=O)O)N2C(=O)[C@@H]3[C@H]2[C@H](C1)CN3C(=O)Nc1ccc(O)cc1 [18(a), (1aS,3aR,6bR)-2-(4-Hydroxy-phenylcarbamoyl)-5-(1-methyl-1H-tetrazol-5-ylsulphanylmethyl)-1-oxo-1a,2,3,3a,4,6b-hexahydro-1H-2,6a-diazacyclobut[cd]indene-6-carboxylic acid sodium salt]	–	–	MIC C. freundii 1982 [1, 4]: 0.25 µg/mL; MIC E. coli 1346 [2]: 32 µg/mL
Cn1nnnc1SCC1=C(C(=O)O)N2C(=O)[C@@H]3[C@H]2[C@H](C1)CN3C(=O)Nc1ccc(C(N)=O)cc1 [18(b), (1aS,3aR,6bR)-2-(4-Carbamoyl-phenylcarbamoyl)-5-(1-methyl-1H-tetrazol-5-ylsulphanylmethyl)-1-oxo-1a,2,3,3a,4,6b-hexahydro-1H-2,6a-diazacyclobut[cd]indene-6-carboxylic acid sodium salt]	–	–	MIC C. freundii 1982 [1, 4]: 0.25 µg/mL; MIC E. coli 1346 [2]: 32 µg/mL
O=C(NCc1ccncc1)OCC1=C(C(=O)O)N2C(=O)[C@@H]3[C@H]2[C@H](C1)CN3C(=O)C(F)(F)F [100(b), (1aS,3aR,6bR)-1-Oxo-5-(pyridin-4-ylmethylcarbamoyloxymethyl)-2-trifluoroacetyl-1a,2,3,3a,4,6b-hexahydro-1H-2,6a-diazacyclobut[cd]indene-6-carboxylic acid sodium salt]	1	2	–
C=CC1=C(C(=O)O)N2C(=O)[C@@H]3[C@H]2[C@H](C1)CN3C(C)=O [Example 47, (1aS,3aR, 6bR)-2-Acetyl-1-oxo-5-vinyl-1a,2,3,3a,4,6b-hexahydro-1H-2,6a-diazacyclobut[cd]indene-6-carboxylic acid sodium salt]	4	8	–
Cc1nnc(SCC2=C(C(=O)O)N3C(=O)[C@H]4NC[C@@H](C2)[C@H]43)s1 [Example 63, (1aS,3aR,6bR)-5-(5-Methyl-1,3,4-thiadiazol-2-ylsulphanylmethyl)-1-oxo-1a,2,3,3a,4,6b-hexahydro-1H-2,6a-diazacyclobut[cd]indene-6-carboxylic acid trifluoroacetate]	2	8	–
CC(=O)NCC1=C(C(=O)O)N2C(=O)[C@H]3NC[C@@H](C1)[C@H]32 [Example 84, (1aS,3aR, 6bR)-5-Acetylaminomethyl-1-oxo-l a,2,3,3a,4,6b-hexahydro-1H-2,6a-diazacyclobut[cd]indene-6-carboxylic acid trifluoroacetate]	4	2	–
O=C([O-])C1=C(C[n+]2ccccc2)C[C@@H]2CN[C@@H]3C(=O)N1[C@H]23 [Example 22, (1aS,3aR,6bR)-1-Oxo-5-(pyridin-1-yliomethyl)-1a,2,3,3a,4,6b-hexahydro-1H-2,6a-diazacyclobut[cd]indene-6-carboxylate trifluoroacetate]	–	–	MIC C. freundii 1982 [1, 4]: 4 µg/mL; MIC E. coli 1346 [2]: 4 µg/mL
O=C(O)C1=C(CSc2nc(-c3cccnc3)cs2)C[C@@H]2CN[C@@H]3C(=O)N1[C@H]23 [Example 66, (1aS,3aR,6bR)-1-Oxo-5-(4-pyridin-3-yl-thiazol-2-ylsulphanylmethyl)-1a,2,3,3a,4,6b-hexahydro-1H-2,6a-diazacyclobut[cd]indene6-carboxylic acid trifluoroacetate]	8	4	–
O=C(O)C1=C(CSc2ccnc3c2CCC3)S[C@@H]2CN(C(=O)Nc3ccc(O)cc3)[C@@H]3C(=O)N1[C@@H]32 [41(a), (1aS,3aR,6bS)-2-(4-Hydroxy-phenylcarbamoyl)-5-(6,7-dihydro-5H-1-pyrindin-4-ylsulphanylmethyl)-1-oxo-4-thia-1,1a,2,3,3a,6b-hexahydro-2,6a-diazacyclobut[cd]indene-6-carboxylic acid sodium salt]	2	> 32	–
Cn1nnnc1SCC1=C(C(=O)O)N2C(=O)[C@@H]3[C@H]2[C@H](C1)CN3C(=O)NCc1ccc(O)cc1 [18(h), (1aS,3aR,6bR)-2-(4-Hydroxy-benzylcarbamoyl)-5-(1-methyl-1H-tetrazol-5-ylsulphanylmethyl)-1-oxo-1a,2,3,3a,4,6b-hexahydro-1H-2,6a-diazacyclobut[cd]indene-6-carboxylic acid sodium salt]	0.5	16	–
Nc1nnc(SCC2=C(C(=O)O)N3C(=O)[C@@H]4[C@H]3[C@H](C2)CN4C(=O)C(F)(F)F)s1 [19(h), (1aS,3aR,6bR)-5-(5-Amino-1,3,4-thiadiazol-2-ylsulphanylmethyl)-1-oxo-2-trifluoroacetyl-1a,2,3,3a,4,6b-hexahydro-1H-2,6a-diaza-cyclobut[cd]indene-6-carboxylic acid sodium salt]	0.5	2	–
O=C(O)C1=C(CSc2ccncc2)O[C@@H]2CN[C@@H]3C(=O)N1[C@@H]32 [Example 29(b), (1aS,3aR,6bS)-1-Oxo-5-(pyridin-4-ylsulphanylmethyl)-1,1a,2,3,3a,6b-hexahydro-4-oxa-2,6a-diazacyclobut[cd]indene-6-carboxylic acid]	2	> 16	–
Cn1nnnc1CSCC1=C(C(=O)O)N2C(=O)[C@H]3NC[C@@H](S1)[C@H]32 [Example 43, (1aS,3aR,6bS)-5-(1-Methyl-1H-tetrazol-5-ylmethylsulphanylmethyl)-1-oxo-4-thia-1,1a,2,3,3a,6 b-hexahydro-2,6a-diazacyclobut-[cd]indene-6-carboxylic acid sodium salt]	4	> 32	–
CC(=O)N1C[C@H]2CC(Sc3nnnn3C)=C(C(=O)O)N3C(=O)[C@@H]1[C@@H]23 [Example 3(aa), (1aS,3aR,6bR)-2-Acetyl-5-(1-methyl-1H-tetrazol-5-ylsulphanyl)-1-oxo-1a,2,3,3a,4,6b-hexahydro-1H-2,6a-diazacyclobut[cd]indene-6-carboxylic acid sodium salt]	2	8	–
O=C(Cn1nnnc1SCC1=C(C(=O)O)N2C(=O)[C@H]3NC[C@@H](O1)[C@H]32)NCCc1ccccc1 [29(h), (1aS,3aR,6bS)-1-Oxo-5-(1-(phenylethyl-carbamoylmethyl)-1H-tetrazol-5-ylsulphanylmethyl)-1,1a,2,3,3a,6b-hexahydro-4-oxa-2,6a-diazacydobut[cd]indene-6-carboxylic acid]	32	> 32	–
CC(=O)N1C[C@H]2CC(CSc3nnnn3CC(N)=O)=C(C(=O)O)N3C(=O)[C@@H]1[C@@H]23 [70(a), (1aS,3aR,6bR)-2-Acetyl-5-(1-carbamoylmethyl-1H-tetrazol-5-ylsulphanylmethyl)-1-oxo-1a,2,3,3a,4,6b-hexahydro-1H-2,6a-diazacyclobut[cd]indene-6-carboxylic acid sodium salt]	–	–	MIC C. freundii 1982 (D) [1, 5]: 0.5 µg/mL; MIC E. coli 1346 (E) [2, 6]: 1 µg/mL
CS(=O)(=O)OC1=C(C(=O)O)N2C(=O)[C@@H]3[C@H]2[C@H](C1)CN3C(=O)Nc1ccc(C(N)=O)cc1 [9(b), (1aS,3aR,6bR)-2-(4-Carbamoyl-phenylcarbamoyl)-5-methylsulphonyloxy-1-oxo-1a, 2,3,3a,4,6b-hexahydro-1H-2,6a-diazacyclobut[cd]indene-6-carboxylic acid sodium salt]	–	–	MIC C. freundii 1982 [1, 4]: 0.25 µg/mL; MIC E. coli 1346 [2]: 0.5 µg/mL
[N-]=[N+]=NCC1=C(C(=O)O)N2C(=O)[C@@H]3[C@H]2[C@H](C1)CN3C(=O)C(F)(F)F [83(b), (1aS,3aR,6bR)-5-Azidomethyl-2-trifluoroacetyl-1-oxo-1a,2,3,3a,4,6b-hexahydro-1H-2,6a-diazacyclobut[cd]indene-6-carboxylic acid sodium salt]	0.5	0.5	–
CC(=O)N1C[C@H]2OC(CSc3nnnn3C)=C(C(=O)O)N3C(=O)[C@@H]1[C@@H]23 [Example 35, (1aS,3aR,6bS)-2-Acetyl-5-(1-methyl-1H-tetrazol-5-yl-sulphanylmethyl)-1-oxo-1,1a,2,3,3a,6b-hexahydro-4-oxa-2,6 a-diazacyclobut[cd]indene-6-carboxylic acid sodium salt]	–	–	MIC C. freundii 1982 (D) [1, 5]: 1 µg/mL; MIC E. coli 1346 (E) [2, 6]: 0.5 µg/mL
O=C(O)C1=C(CSc2ccncc2)O[C@@H]2CN(C(=O)Nc3ccc(O)cc3)[C@@H]3C(=O)N1[C@@H]32 [31(d), (1aS,3aR,6bS)-2-(4-Hydroxy-phenylcarbamoyl)-1-oxo-5-(pyridin-4-ylsulphanylmethyl)-1,1a,2,3,3a,6b-hexahydro-4-oxa-2,6a-diazacyclobut[cd]indene-6-carboxylicacid sodium salt]	1	> 32	–
